Assay [1] deals with T1, AgamOBP1 (Odorant Binding Protein 1) (Anopheles gambiae, UniProt Q8T6S0).
T1 sequence (Q8T6S0 20-144): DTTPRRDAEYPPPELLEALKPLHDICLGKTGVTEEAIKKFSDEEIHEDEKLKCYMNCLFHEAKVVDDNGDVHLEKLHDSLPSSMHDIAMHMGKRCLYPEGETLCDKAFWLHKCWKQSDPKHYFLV
The assay can be described thus: fluorescent reporter dye of the displacement assay (no Kd reported). On the set-up: gene OBP-1; recombinant OBP1 (r-OBP1).

In assay [2] the target is T1, AgamOBP1 (Odorant Binding Protein 1). As to the kind of experiment: fluorescence displacement of 1-NPN (screening assay). On the set-up: gene OBP-1; recombinant OBP1 (r-OBP1). The source says: fluorescence displacement of 1-NPN (screening assay) on AgamOBP1 (Odorant Binding Protein 1) | 3-methyl indole (skatole) […] also bound to r-OBP1 but with an apparently lower affinity

For assay [3] the target is unchanged. The assay can be described thus: 3H-indole scintillation proximity (Ni-NTA FlashPlate) binding; confirmed by 1-NPN fluorescence displacement. On the set-up: gene OBP-1; purified 6xHis tagged r-OBP1. The source says: 3H-indole scintillation proximity (Ni-NTA FlashPlate) binding; confirmed by 1-NPN fluorescence displacement on AgamOBP1 (Odorant Binding Protein 1) | Binding curve of ^3H indole to r-OBP1 in Ni-NTA FlashPlates.
(SPA uses beads or plates that emit light when radiolabelled molecules are held near them.)

Data on three molecules can be found in article PMC2830424, “The Anopheles gambiae Odorant Binding Protein 1 (AgamOBP1) Mediates Indole Recognition in the Antennae of Female Mosquitoes” (PLoS ONE, 2010).

Structures are written as SMILES.

A word on the Kd: it is the free concentration of one partner at which half of the binding sites on the other are occupied at equilibrium, for simple one-to-one binding. A higher Kd goes with lower affinity.

On to `c1ccc(Nc2cccc3ccccc23)cc1` [1-NPN, N-Phenyl-1-Naphthylamine], for which the “fluorescent reporter dye displacement” value in assay [1] was “increasing concentrations of indole displaced more 1-NPN dye from the AgamOBP1 binding pocket”.
As for `Cc1c[nH]c2ccccc12` [3-methyl indole], the “fluorescence displacement of 1-NPN (screening assay)” value in assay [2] is 3-methyl indole (skatole) [...] also bound to r-OBP1 but with an apparently lower affinity.
`c1ccc2[nH]ccc2c1` [indole]: in assay [3], the affinity, expressed as Kd, was 2.3 µM.
